Measurements reported in patent publication US20140163082A1, “PYRAZOLYL COMPOUNDS FOR USE IN REVERSING REACTIVE GLIOSIS” (priority 2011, published 2014).

Tests used:
[1] = test system: retinal NV in OIR mouse model; format: in vivo
Procedure: Retinal NV was induced in newborn mice as described previously. Briefly, P7 mice were exposed with their nursing mother, for 5 days [between P7 and P12] to hyperoxic conditions, by incubating them in an airtight chamber [PROOX 110 chamber O2 controller; Biospherix Ltd., Redfield, N.Y.] ventilated by a mixture of O2 and air to a final oxygen fraction of 75±2%. These incubation conditions induced vaso-obliteration and subsequent cessation of vascular development in the capillary beds of the central retina. At P12, the mice were allowed to recover in normal room air conditions and maintained for another 5 days [till P17], the day in which peak disease occurs. A condition of relative hypoxia resulted between P12 and P17, and extensive retinal NV developed in 100% of the mice. Age-matched animals with the hyperoxia-exposed groups were maintained identically, except they were exposed to room air […], 79% N2] for the entire duration of the experiment. All animals were examined and sacrificed on the same days.
A group of hyperoxia-exposed animals [n=15] were injected intravitreally [into both eyes] at P12 and P15 with 3 μl of YC-1 [100 μM] [drug-treated group]. Another group of hyperoxiaexposed mice [n=15] were injected intravitreally [into both eyes] at P12 and P15 with 3 μl of DMSO [0.2% [v/v]] [mock-treated group]. Non-treated mice grown under ambient conditions, non-treated hyperoxia-exposed mice, DMSO-treated hyperoxia-exposed mice and YC-1-treated hyperoxia-exposed mice, were all examined at different critical time points for qualitative assessment of the retinal vasculature by fluorescein angiography.
Deep anesthesia was induced by intraperitoneal injection of ketamine [1%], xylazine [0.1%], and sodium chloride [0.9%] in a concentration of 0.1 mL/10 g mouse body weight. Sternotomy was performed, the mice were perfused through the left ventricle with 600 μL of high-molecular-mass [2×106 Da] FITC-dextran in PBS [50 mg/ml], which was allowed to circulate for 2 minutes before the animals were euthanatized and the eyes enucleated and the flat mounts were prepared. Subsequent to retinal extraction, all retinas were fixed in 4% paraformaldehye for 24 hrs at 4° C. A dissecting microscope was used to dissect the cornea with a circumferential limbal incision, followed by removal of the lens and vitreous. Microscissors were used to make four radial incisions of the retinal eyecup in order to prepare retinal flat mounts on glass slides. Flat mounts were immersed in Aquamount mounting medium [Polysciences, Warrington, Pa.], coverslips were carefully placed over the retina, and the edges of the coverslips were sealed.
Images of the perfused retinas were captured with a fluorescence microscope [Zeiss Axiovert 135, Thornwood, N.Y.], and images were captured in a digital format in a 10× and 100× objectives using a digital camera [AxioCam, NY]. The extent of retinal NV was then quantified by Metamorph™ imaging software [Universal Imaging, Sunnyvale, Calif.]. Briefly, the entire retina was outlined to distinguish the total retinal area of each eye. Then, the images were thresholded to emphasize only the FITC-perfused vessels. This permitted the measurement of total BV area of each retina and the percentage of each retina that is engrossed with BVs. The entire mounted retinas were analyzed in a masked fashion [three observers] to minimize sampling bias. The total vascularized area was then normalized to the total retinal area and the percentage of the retina covered by vessels was calculated. The vascular area was quantified by setting a threshold level of fluorescence, above which only vessels were captured [density slicing]. The total surface area of the retina was outlined using the outermost vessel of the arcade near the ora serrata as the border. The central capillary dropout area was quantified from the digital images in masked fashion. […]

[2] = test system: hRMVECs cocultured with rMC-1 cells; assay: Cell migration in a co-culture system model (transwell); format: cell-based, human; settings: rMC-1 cells treated with YC-1 100 μM, normoxic and hypoxic conditions
Procedure: Migration assay of hRMVECs was carried out using the transwell insert with […] pore size. The inserts were coated with Extracellular matrix [ECM] [Millipore, Billerica, Mass.] and airdry up. Chemotaxis was induced by the control r-MClcells or the r-MC1 cells that were treated with YC-1 [100 μM], which were situated in the lower compartment. hRMVECs suspension [final concentration, 5×10^4 cells/well] was added to the upper compartment [FIG. 7B]. After incubated for 24 hours, the filters were washed and then fixed and stained with crystal violet [0.5% crystal violet and 20% methanol] for 30 min at room temperature. The filters were washed with distilled water, and the cells on the upper surface of the inserts were wiped with a cotton swab. The number of cells per field that migrated to the lower surface of the filters was determined microscopically. Five randomly chosen fields were counted per filter. Data were presented as a number of migrated cells [**P<0.01].

[3] = test system: R28 cells; assay: GFAP immunofluorescence, R28; format: cell-based, rat; settings: for GFAP protein expression (immunofluorescence): vs hypoxic controls
Procedure: Cells were placed in airtight chambers [BioSpherix, Redfield, N.Y.] and the O2 tension was maintained at 1.2% by using Pro-Ox Model 110 O2 regulator [BioSpherix, Redfield, N.Y.]. The chamber was purged with a gas mixture of 5.32% CO2, and 93.48% N2. […] Müller cells [rMC-1] and […] cells [2×10^4 cells per well] were grown on 8-well chamber slides and cultured in 300 μl of their growing media, which contained YC-1 [25-100 μM] or DMSO [0.2% v/v] and incubated under normoxia or hypoxia for 48 hours at 37° C. YC-1 or DMSO was added 5 minutes prior to the hypoxic incubation. The cells were fixed 48 hours later with 3.7% paraformaldehyde and permeabilized with 0.2% TritonTM X-100 in PBS. The cells were incubated for two hours with anti-GFAP antibody. Negative control experiments consisted of omission of the primary antibody. Cells were then incubated with HRP-conjugate working solution, followed by the addition of the […] solution [TSA Kit#2 and #4 for rMC-1 and […] staining, respectively] at 1:100 dilutions [Molecular Probes, Carlsbad, Calif.]. Digitized images were acquired utilizing AxioVision software [Zeiss Axiovert 135 and AxioCam]. Intensity values of immunofluorescence staining of GFAP in rMC-1 and […] cells was analyzed and quantified using MetamorphTM imaging analysis software version 6.0 [Universal Imaging, Sunnyvale, Calif.]. The staining intensity in our series ranged from a weak blush to moderate or strong. The amount of cells staining with the antibody was further categorized as focal [<10%], patchy [10%-50%], and diffuse [>50%]. For semiquantitative analysis, focal and/or weak staining was considered equivocal staining, and patchy or diffuse staining was subcategorized as either moderate or strong.

[4] = test system: macrophages; settings: macrophages stimulated by lipoteichoic acid in vitro, ref [31]; cited from earlier work
[5] = R28, 25 μM YC-1, hypoxia 48 hours

SMILES: OCc1ccc(-c2nn(Cc3ccccc3)c3ccccc23)o1 [YC-1, 3-(5′-hydroxymethyl-2′-furyl)-1-benzylindazole]
- retinal vasodilation (vessel diameters) ([1]; OIR mice, dual injection P12 and P15, P17): inhibited oxygen-injury-induced vasodilation
- area of pre-retinal neovascular tufts ([1]; OIR mice, dual injection, P17, vs DMSO-treated group): significantly decreased
- tortuosity index of retinal vessels ([1]; OIR mice, dual injection, P17, DMSO 1.059, normoxic 1.019): 1.026±0.001
- number of BV tufts/flat mount ([1]; OIR mice, dual intravitreal injection P12 and P15, P17, n=15, DMSO 198): 3.0±1.1
- vascularized regions, share of the total size of the retina ([1]; OIR mice, dual intravitreal injections, P17, DMSO 70%, normoxic ~99%): ~97%
- capillary-free (avascularized) regions, share of the size of the entire retina ([1]; OIR mice, intravitreal 3 μl YC-1 100 μM at P12 and P15, P17, DMSO-treated 30%): 2.2%±0.1
- retinal vaso-obliteration ([1]; OIR mice, vs obliterated areas of DMSO-treated retinas): significantly inhibited the retinal vaso-obliteration
- toxic effects on the retinal vasculature ([1]; mouse, in vivo): No obvious toxic effects
- rMC-1 cells-induced hRMVECs migration [2]: significantly attenuated
- GFAP cytoplasmic staining pattern/intensity (immunofluorescence) [3, 5]: stronger diffuse cytoplasmic GFAP staining
- GFAP staining vs DMSO-treated hypoxic controls (immunofluorescence) [3, 5]: remarkable inhibition
- GFAP protein expression (immunofluorescence) ([3]; R28, 50 μM YC-1, hypoxia): significant inhibitory effects
- GFAP protein expression (immunofluorescence) ([3]; R28, 75 μM YC-1, hypoxia): significant inhibitory effects
- GFAP staining remaining in cytoplasm (immunofluorescence) ([3]; R28, 100 μM YC-1, hypoxia): few stained regions
- GFAP protein levels (quantified staining intensity, FIG. 11C) ([3]; R28, hypoxia, dose-dependent fashion): significantly reduced
- expression of iNOS [4]: potent activity at abrogating the expression of iNOS
